Assay [1] deals with Elektroschock-induzierte Konvulsionen. In words: Protection against electroshock-induced convulsions (rat). The class given is in vivo. The following applies: po, Ratte, read-out: ED₅₀. The text has this:
(§1) Die neuen Verbindungen besitzen wertvolle pharmakologische Eigenschaften, insbesondere eine ausgeprägte antikonvulsive Wirksamkeit mit neuartigem Wirkungsspektrum. Die ausgezeichnete antikonvulsive Wirksamkeit der erfindungsgemäss bereitgestellten Verbindungen zeigt sich insbesondere an Primaten. […] Das neuartige Wirkungsspektrum der erfindungsgemässen Verbindungen kann beispielsweise durch ihr Verhalten in den nachstehenden pharmakologischen und biochemischen Epilepsiemodellen charakterisiert werden: • 1) Schutzwirkung gegen Elektroschock-induzierte Konvulsionen (Maus, Ratte): deutliche Aktivität in Dosen ab etwa 30 mg/kg p.o., für z.B. 5-Amino-1-(4-hexyl)-1M-1,2,3-triazol-4-carboxamid ED₅₀ = 100 mg/kg p.o. (Maus) bzw. […] Wirkung auf die GABA-Neuro-transmission und kein nachweisbarer Einfluss auf den GABA-Kata-bolismus; • 6) Kindling-Epilepsiemodell (Ratte): die Entwicklung sowohl der Nachentladung als auch der Symptomatologie wird stark verlangsamt.

For assay [2] the test system is unchanged. Briefly: Protection against electroshock-induced convulsions (mouse). As to conditions: po, Maus, read-out: ED₅₀. It is filed as in vivo.
Description: as §1

The test system of assay [3] is experimentellen Strychninkrampf. Briefly: Protection against experimental strychnine convulsions. The following applies: Mus musculus, po, read-out: ED₅₀. It is filed as in vivo, Maus.
Description: as §1

The next assay relates to Metrazol-Antagonismus. Briefly: Metrazol antagonism in the mouse. The following applies: po, Maus, read-out: ED₅₀. The class given is in vivo.
Description: as §1

Assay [4] relates to Picrotoxin-induzierte Konvulsionen. In words: Protection against picrotoxin-induced convulsions. The class given is in vivo. The following applies: Maus, doses up to and including 300 mg/kg p.o.
Description: as §1

Assay [5] relates to durch Aluminiumoxidimplantation erzeugten fokalen Konvulsionen. Briefly: Focal convulsions produced by aluminium oxide implantation in the rhesus monkey. The class given is in vivo, Rhesusaffen. As to conditions: daily doses of 50 mg/kg p.o., over the whole 15-day treatment.
Description: as §1

Each structure is given as a SMILES string.

For `CCCC(CC)n1nnc(C(N)=O)c1N` (stereo not shown) [5-Amino-1-(4-hexyl)-1H-1,2,3-triazol-4-carboxamid], the ED50 in assay [1] was 50 mg/kg; in assay [2] it was 100 mg/kg; in assay [3], 300 mg/kg; with Metrazol-Antagonismus it was 210 mg/kg. Also, the “Schutzwirkung gegen Picrotoxin-induzierte Konvulsionen” value in assay [4] is recorded as “keine Wirkung feststellbar”.

Regarding `CCCC(CCC)n1nnc(C(N)=O)c1N` [Beispiel 1, 5-Amino-1-(4-heptyl)-1H-1,2,3-triazol-4-carboxamid], in assay [5], the “Anzahl der fokalen Konvulsionen” value is “starke Abnahme” and the “Intensität der fokalen Konvulsionen” value was “starke Abnahme”.
